# Measured values as given in US20230277863A1, “Use Of Photosensitizers For Treatment Of Viral Respiratory Infections” (priority 2020, published 2023).
# Key:
# SARS-CoV-2 = assay: Treatment of a human subject suffering from COVID-19; assay type: in vivo; conditions: one patient, 3 days, every 6 hours
# bovine coronavirus = assay: Inactivation of bovine coronavirus in infected cells using non-coherent LED light; assay type: cell-based; conditions: broadband LED light (non-coherent), 10000 Lux, 2 min of irradiation
# Procedure: In a further set of experiments, the U737 cells were treated under the conditions as shown in the table of FIG. 1 using irradiation with either a monochromatic LED device at 590 nm or a broadband LED device (non-coherent light in each case). Light intensity was 10000 Lux in both cases.
# BCoV strain L9 = assay: Inactivation of bovine coronavirus in infected U373 cells, photosensitizer plus 810 nm laser irradiation; conditions: for residual virus: 100 joule/cm^2, 0.3 watt/cm^2
# [1] = tested on: SARS-CoV-2/Germany strain; assay: Inactivation of SARS-CoV-2 in infected Vero E6 cells, methylene blue plus broadband LED irradiation; conditions: for mean reduction factor (RF): broadband LED (Ledlenser P6), SARS-CoV-2-infected Vero E6 cells; for inactivation of the SARS-CoV-2: corresponds to the mean RF
# [2] = 0.01% photosensitizer, without radiation, immediately wrapped in aluminium foil, stored and frozen in the dark
structure (smiles),measurement,setting,value
CN(C)c1ccc2nc3ccc(=[N+](C)C)cc-3sc2c1 [methylene blue],PCR SARS-CoV-2 cycle threshold (CT) after treatment,"SARS-CoV-2; 3 μg methylene blue nasal/throat spray plus broadband LED ca. 6000 Lux, CT before treatment 19",35
same,condition of patient after treatment,"SARS-CoV-2; 3 μg methylene blue spray plus broadband LED, before: dry cough, headache, 38.2° C., medium general condition","no cough, no headache, normalized body temperature, normal general condition"
same,reduction of residual virus,bovine coronavirus,3 log10 steps
same,mean reduction factor,"BCoV strain L9; 0.0001% (w/v) photosensitizer, 810 nm, 100 joule/cm^2, 0.3 watt/cm^2, 5.46 min, BCoV-infected U373 cells",≥ 6.00 log10 steps
same,cytotoxicity (CT),"BCoV strain L9; 0.0001% photosensitizer samples, titration on U373 cells",no cytotoxicity
same,residual virus,"BCoV strain L9; 0.0001% photosensitizer, 810 nm",only minimal residual virus could still be detected in one sample
same,virus inactivation,"BCoV strain L9; 0.0001% photosensitizer, 810 nm, 100 joule/cm^2, corresponds to the mean RF",≥ 99.999%
same,reduction factor (RF),"BCoV strain L9; 0.001% (w/v) photosensitizer, 810 nm, 100 joule/cm^2, 0.3 watt/cm^2, 5.46 min, BCoV-infected U373 cells",5.08 log10 steps
same,reduction factor (RF),"BCoV strain L9; 0.01% (w/v) photosensitizer, 810 nm, 100 joule/cm^2, 0.3 watt/cm^2, 5.46 min, BCoV-infected U373 cells",4.08 log10 steps
same,reduction factor (RF),BCoV strain L9; [2],0.38±0.64
same,residual virus / effectiveness,BCoV strain L9; [2],substantial amounts of residual virus and no effectiveness
same,reduction factor (RF),"BCoV strain L9; 0.1% (w/v) photosensitizer, 810 nm, 100 joule/cm^2, 0.3 watt/cm^2, 5.46 min, BCoV-infected U373 cells",3.08 log10 steps
same,residual virus,"BCoV strain L9; 0.1% (w/v) to 0.001% (w/v) photosensitizer, 810 nm",no residual virus was found
same,mean reduction factor (RF),[1]; 0.0001% photosensitizer,≥ 4.67
same,inactivation of the SARS-CoV-2,[1]; 0.0001% photosensitizer,99.99%
same,residual virus,"[1]; 0.001% or 0.0001% photosensitizer, irradiation 1 minute, 20,000 lx, initial virus titre 6.92 log 10 TCID50/ml, Vero E6 cells",No residual virus was found
same,mean reduction factor (RF),[1]; 0.001% photosensitizer,≥ 4.67
same,inactivation of the SARS-CoV-2,[1]; 0.001% photosensitizer,99.99%
